The subject of one test is A549 cell line. Kind of test: Anti-proliferation assay in A549 cell line (CellTiter-Glo). The class given is cell-based. The note with it: Homo sapiens; A549 cells, 48 h, CTG assay. How it is done: Cell viability was measured by the CellTiter-Glo Luminescent (CTG) assay. A549 cells (ATCC, Cat. No.CCL-185) were seeded (2000 cells/well) in 96-well plates and cells were left to incubate at 37 °C for 24 h. After 24 h, prepare compounds with 5-fold dilution in DMSO to the compound plate (200-fold of the final concentration) and transfer 5 μL from the compound plate to 95 μL intermediate medium in the intermediate plate (10-fold of the final concentration). Then transfer 10 μL from the intermediate plate to the cell plates. The final DMSO is 0.5%. After continuing to incubate for 48 h, add 50 μL CTG reagent to each well and read luminescence according to CTG product manual.
(In general: In ATP-based viability assays light output follows the ATP content of the culture.)

The target of the next test is T1, IDO1 (Homo sapiens, UniProt P14902).
T1 construct: No. 20160706
Kind of test: IDO1 enzymatic assay. The class given is biochemical. The settings on record: for IC50: mean ± SD of at least two independent assays. The procedure:
(1) Prepare 100× compound of the final desired highest inhibitor concentration in reaction by 100% DMSO. For example, if compounds test at 10 μM, then prepare 1 mM of compound solution in this step. Then dilute compound with DMSO in 3-fold mode to obtain different concentrations. Mark as source plate. (2) Add 100 μL of 100% DMSO to column 1 and column 12 for background control and no compound high control respectively.
Transfer 2 μL of each well from the 96-well source plate to a 96-well assay plate.
• (3) Enzyme Reaction • Prepare 2× enzyme solution. Add IDO-1 in assay buffer. • Prepare 2× substrate solution. Add L-tryptophan, ascorbate, methylene blue, catalase in the assay buffer. • Assay plate already contains 2 μL of compound in 100% DMSO. • Transfer 2× enzyme solution to the assay plate. Add 100 μL of 2× enzyme solution to each well of the 96-well assay plate. • Incubate at room temperature for 10 min. • Transfer […] to each well of the 96-well assay plate. • Read OD321 kinetically by Spectramax (Molecular Devices, LLC, San Jose, CA, USA). • (4) Curve Fitting • Copy data from Spectramax program. Percent inhibition = (max-conversion)/(max − min) × 100. “max” stands for high control; “min” stands for low control. • Fit the data in XL-Fit to obtain IC50 values. Equation used is: Y = Bottom + (Top − Bottom)/(1 + 10^((LogIC50 − X) × Hill Slope)

The target of the next test is T2, HDAC1 (Homo sapiens, UniProt Q13547).
T2 construct: purchased BPS Bioscience Inc. 50051
Kind of test: HDAC enzymatic assay. Format: biochemical. The settings on record: mean ± SD of at least two independent assays. How it is done:
• (1) Prepare 1× assay buffer (modified Tris Buffer). • (2) Compound serial dilution: Transfer compounds to assay plate by Echo in 100% DMSO. The final fraction of DMSO is 1%. • (3) Prepare enzyme solution in 1× assay buffer. • (4) Add trypsin and Ac-peptide substrate in 1× assay buffer to make the substrate solution. • (5) Transfer 15 μL of enzyme solution to assay plate or for low control transfer 15 μL of 1× assay buffer. • (6) Incubate at room temperature for 15 min. • (7) Add 10 μL of substrate solution to each well to start reaction. • (8) Incubate at room temperature for 60 min. • (9) Read the plate on Synergy MX with excitation at 355 nm and emission at 460 nm. • (10) Curve fitting: Fit the data in Excel to obtain inhibition values using Equation (1).
Inh% = (Max − Signal)/(Max − Min) × 100(1)
Fit the data in XL-Fit to obtain IC50 values using Equation (2); Y = Bottom + (Top − Bottom)/(1 + 10^((LogIC50 − X) × Hill Slope))(2)
Y is %inhibition and X is compound concentration.

[1] abbreviates: 10 μM, Table 1 natural products, read-out: IDO1 Inhibition @ 10 μM (%).
Setting [2] is: 10 μM, Tables 2 and 3, read-out: IDO1 % Inhibition at 10 μM (converted).
Where [3] appears, read: 10 μM, Table 1 natural products.

Like-named read-outs stand apart in the source and are kept apart here.

T1 sequence (P14902 whole entry): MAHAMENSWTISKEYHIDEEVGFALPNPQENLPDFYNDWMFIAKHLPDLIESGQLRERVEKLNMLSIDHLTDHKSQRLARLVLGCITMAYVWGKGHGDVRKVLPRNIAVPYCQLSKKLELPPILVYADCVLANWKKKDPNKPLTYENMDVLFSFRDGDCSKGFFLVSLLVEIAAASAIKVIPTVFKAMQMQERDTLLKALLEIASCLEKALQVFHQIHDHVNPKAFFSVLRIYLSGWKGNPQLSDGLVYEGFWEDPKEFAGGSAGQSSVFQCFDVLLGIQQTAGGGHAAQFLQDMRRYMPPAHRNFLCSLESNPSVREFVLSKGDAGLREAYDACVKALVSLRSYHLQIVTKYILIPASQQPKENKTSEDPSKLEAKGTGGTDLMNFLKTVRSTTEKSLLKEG
T2 sequence (Q13547 whole entry): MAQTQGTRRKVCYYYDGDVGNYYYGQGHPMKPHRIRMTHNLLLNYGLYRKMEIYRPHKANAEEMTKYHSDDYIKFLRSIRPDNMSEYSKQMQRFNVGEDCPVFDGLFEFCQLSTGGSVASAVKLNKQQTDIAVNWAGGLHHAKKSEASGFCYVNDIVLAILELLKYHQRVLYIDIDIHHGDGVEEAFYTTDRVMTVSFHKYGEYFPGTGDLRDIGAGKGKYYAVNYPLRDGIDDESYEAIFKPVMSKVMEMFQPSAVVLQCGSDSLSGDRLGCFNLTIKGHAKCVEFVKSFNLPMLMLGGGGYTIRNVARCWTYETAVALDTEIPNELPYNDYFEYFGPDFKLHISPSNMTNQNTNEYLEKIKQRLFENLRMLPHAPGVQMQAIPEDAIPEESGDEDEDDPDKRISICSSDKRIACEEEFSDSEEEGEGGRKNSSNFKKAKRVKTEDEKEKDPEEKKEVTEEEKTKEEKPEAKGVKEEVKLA

For the molecule `CC(C)=CCCc1c(C)ccc2c1C(=O)C(=O)C(C(C)C)=C2` [Compound 1, saprorthoquinone], the results for the IC50 with A549 cell line and at IDO1 were 9.97 µM and 1.76 ± 0.27 µM, respectively. Further, the inhibition at 10 µM on IDO1 (setting [1]) and at IDO1 (setting [2]) was 85% in each case.

Regarding `Cc1coc2c1C(=O)C(=O)c1c-2ccc2c(C)cccc12` [Compound 4], at IDO1 (setting [1]), the inhibition (as a rule, the relative decrease from the control value, in per cent) at 10 µM is 65%.

For the molecule `CC(C)C1=Cc2ccc3c(c2C(=O)C1=O)CCCC3(C)C` [Compound 5], on IDO1 (read-out: IDO1 Inhibition @ 10 μM (%)), the inhibition at 10 µM was determined as 81%.

With `CC1COC2=C1C(=O)C(=O)c1c2ccc2c1CCCC2(C)C` (centres unmarked) [Compound 6], the inhibition at 10 µM on IDO1 (setting [1]) worked out at 66%.

Consider `Cc1ccc2c(c1CCC(=O)C(C)C)C(=O)C(=O)C(C(C)C)=C2` [Compound 7], for which the inhibition at 10 µM on IDO1 (setting [1]) amounted to 86%.

With `Cc1ccc2c(c1C(=O)CCC(C)(C)O)C(=O)C(=O)C(C(C)C)=C2` [Compound 8], at IDO1 (setting [1]), the inhibition at 10 µM is 73%.

Consider `COC(=O)[C@@]1(C)CCCc2c1ccc1c2C(=O)C(=O)C2=C1OCC2C` (some centres unmarked) [Compound 9], for which, at IDO1 (setting [1]), the inhibition at 10 µM is 61%.

`CC(C)C1=C(O)C(=O)C2=C(CC[C@H]3C(C)(C)CCC[C@]23C)C1=O` [Compound 10]: the “IDO1 Inhibition @ 10 μM (%)” value on IDO1 (setting [3]) is reported as “almost lost their activity”. In addition, the inhibition at 10 µM on IDO1 (setting [1]) was 2%.

Regarding `Cc1ccc2c(c1CCCC(C)(C)O)C(=O)C(O)=C(C(C)C)C2=O` [Compound 11], the “IDO1 Inhibition @ 10 μM (%)” value at IDO1 (setting [3]) was “almost lost their activity”. Further, the inhibition at 10 µM on IDO1 (setting [1]) was determined as 2%.

`Cc1cccc2c3c(ccc12)C(=O)C(C(C)C)=C(O)C3=O` [Compound 12]: on IDO1 (setting [1]), the inhibition at 10 µM stood at 13%.

Take `CC(C)C1=CC(=O)C([C@@]2(C)CCCC(C)(C)[C@@H]2CC=O)=CC1=O` [Compound 13]: the inhibition at 10 µM at IDO1 (setting [1]) was found to be 6%.

Turning to `CC(C)=CCCc1c(C)ccc2c1C(=O)C(O)=C(C(C)C)C2=O` [Compound 14], the inhibition at 10 µM on IDO1 (setting [1]) came out at 30%.

Consider `CC(C)C1=C(O)C(=O)C23OC2(C(=O)CC2C(C)(C)CCCC23C)C1=O` (centres unmarked) [Compound 15], for which, at IDO1 (setting [3]), the “IDO1 Inhibition @ 10 μM (%)” value is “almost lost their activity”. On IDO1 (setting [1]), the inhibition at 10 µM stood at 3%.

In the case of `Cc1ccc2c(c1/C=C\C(=O)C(C)(C)O)C(=O)C(O)=C(C(C)C)C2=O` [Compound 16], the “IDO1 Inhibition @ 10 μM (%)” value on IDO1 (setting [3]) was “almost lost their activity”. Also, the inhibition at 10 µM on IDO1 (setting [1]) came out at 3%.

Take `Cc1ccc2c(c1CCC(O)C(C)(C)O)C(=O)C(=O)C(C(C)C)=C2` (centres unmarked) [Compound 17, 8-(3,4-Dihydroxy-4-methylpentyl)-3-isopropyl-7-methylnaphthalene-1,2-dione]: the IC50 (as a rule, the midpoint of a concentration-inhibition curve) in the test on A549 cell line amounted to 12.8 µM; against IDO1, 0.74 ± 0.15 µM. On IDO1 (setting [2]), the inhibition at 10 µM is 90%.

As to `Cc1ccc2c(c1CCC(=O)O)C(=O)C(=O)C(C(C)C)=C2` [Compound 18, 3-(6-Isopropyl-2-methyl-7,8-dioxo-7,8-dihydronaphthalen-1-yl)propanoic acid], the IC50 in the test on A549 cell line is more than 20 µM; against IDO1, 0.99 ± 0.24 µM. On IDO1 (setting [2]), the inhibition at 10 µM is 86%.

With `Cc1ccc2c(c1CCC(N)=O)C(=O)C(=O)C(C(C)C)=C2` [Compound 19, 3-(6-Isopropyl-2-methyl-7,8-dioxo-7,8-dihydro-naphthalen-1-yl)propanamide], the results for the half-inhibitory concentration (IC50) in the test on A549 cell line and at IDO1 were 14.5 µM and 0.51 ± 0.04 µM, respectively. In addition, at IDO1 (setting [2]), the inhibition at 10 µM is 78%.

`Cc1ccc2c(c1CCC(=O)Nc1cccc(F)c1)C(=O)C(=O)C(C(C)C)=C2` [Compound 21a, N-(3-Fluorophenyl)-3-(6-isopropyl-2-methyl-7,8-dioxo-7,8-dihydronaphthalen-1-yl)propanamide]: the results for the half-maximal inhibitory concentration (IC50) in the test on A549 cell line and against IDO1 were 13.1 µM and 1.33 ± 0.01 µM, respectively. Moreover, the inhibition at 10 µM on IDO1 (setting [2]) was 80%.

For `Cc1ccc2c(c1CCC(=O)Nc1ccc(F)cc1)C(=O)C(=O)C(C(C)C)=C2` [Compound 21b, N-(4-Fluorophenyl)-3-(6-isopropyl-2-methyl-7,8-dioxo-7,8-dihydronaphthalen-1-yl)propanamide], in the test with A549 cell line, inhibition was half-maximal at 14.8 µM (IC50). Besides, the inhibition at 10 µM at IDO1 (setting [2]) is 64%.

On to `Cc1ccc2c(c1CCC(=O)Nc1ccc(C(F)(F)F)cc1)C(=O)C(=O)C(C(C)C)=C2` [Compound 21c, 3-(6-Isopropyl-2-methyl-7,8-dioxo-7,8-dihydronaphthalen-1-yl)-N-(4-(trifluoromethyl)phenyl)propanamide], for which, in the test with A549 cell line, half-maximal inhibition (IC50) was put at 7.49 µM. Also, the inhibition at 10 µM at IDO1 (setting [2]) is 64%.

`Cc1ccc2c(c1CCC(=O)Nc1ccc(F)c(Br)c1)C(=O)C(=O)C(C(C)C)=C2` [Compound 21d, N-(3-Bromo-4-fluorophenyl)-3-(6-isopropyl-2-methyl-7,8-dioxo-7,8-dihydronaphthalen-1-yl)propanamide] gave an IC50 in the test on A549 cell line of 9.31 µM. Further, the inhibition at 10 µM on IDO1 (setting [2]) is 65%.

The molecule `COc1ccc(NC(=O)CCc2c(C)ccc3c2C(=O)C(=O)C(C(C)C)=C3)cc1` [Compound 21e, 3-(6-Isopropyl-2-methyl-7,8-dioxo-7,8-dihydronaphthalen-1-yl)-N-(4-methoxyphenyl)propanamide] showed an IC50 in the test on A549 cell line of more than 20 µM. The inhibition at 10 µM on IDO1 (setting [2]) was 66%.

`Cc1ccc2c(c1CCC(=O)NCc1c[nH]c3ccccc13)C(=O)C(=O)C(C(C)C)=C2` [Compound 21f, N-((1H-indol-3-yl)methyl)-3-(6-isopropyl-2-methyl-7,8-dioxo-7,8-dihydronaphthalen-1-yl)propanamide] gave an IC50 in the test on A549 cell line of more than 20 µM. Further, the inhibition at 10 µM at IDO1 (setting [2]) was 79%.

In the test with A549 cell line, `Cc1ccc2c(c1CCC(=O)NCc1cn(C)c3ccccc13)C(=O)C(=O)C(C(C)C)=C2` [Compound 21g, 3-(6-Isopropyl-2-methyl-7,8-dioxo-7,8-dihydronaphthalen-1-yl)-N-((1-methyl-1H-indol-3-yl)methyl)-propanamide] displayed an IC50 of 12.2 µM. Also, the inhibition at 10 µM at IDO1 (setting [2]) is 74%.

Consider `Cc1ccc2c(c1CCCOS(C)(=O)=O)C(=O)C(=O)C(C(C)C)=C2` [Compound 24a, 3-(6-Isopropyl-2-methyl-7,8-dioxo-7,8-dihydronaphthalen-1-yl)propyl methanesulfonate], for which the IC50 stood at 11.8 µM in the test with A549 cell line and 0.72 ± 0.13 µM against IDO1. Moreover, at IDO1 (setting [2]), the inhibition at 10 µM was 91%.

`CCS(=O)(=O)OCCCc1c(C)ccc2c1C(=O)C(=O)C(C(C)C)=C2` [Compound 24b, 3-(6-Isopropyl-2-methyl-7,8-dioxo-7,8-dihydronaphthalen-1-yl)propyl ethanesulfonate]: the IC50 in the test with A549 cell line came to 15.5 µM. Also, at IDO1 (setting [2]), the inhibition at 10 µM was 87%.

In the test on A549 cell line, `Cc1ccc2c(c1CCCOS(N)(=O)=O)C(=O)C(=O)C(C(C)C)=C2` [Compound 24c, 3-(6-Isopropyl-2-methyl-7,8-dioxo-7,8-dihydronaphthalen-1-yl)propyl sulfamate] returned a half-maximal inhibitory concentration (IC50) of 11.1 µM. Also, the inhibition at 10 µM at IDO1 (setting [2]) was 86%.

In the case of `Cc1ccc2c(c1CCC(=O)Nc1ccccc1N)C(=O)C(=O)C(C(C)C)=C2` [Compound 27a, N-(2-Aminophenyl)-3-(6-isopropyl-2-methyl-7,8-dioxo-7,8-dihydronaphthalen-1-yl)propanamide], the results for the IC50 in the test on A549 cell line, against IDO1 and at HDAC1 were 17.8 µM, 0.72 ± 0.1 µM and more than 100 µM, respectively. In addition, the inhibition at 10 µM on IDO1 (setting [2]) was 88%.

With `Cc1ccc2c(c1CCC(=O)Nc1cc(F)ccc1N)C(=O)C(=O)C(C(C)C)=C2` [Compound 27b, N-(2-Amino-5-fluorophenyl)-3-(6-isopropyl-2-methyl-7,8-dioxo-7,8-dihydronaphthalen-1-yl)propanamide], the half-inhibitory concentration (IC50) with A549 cell line is 9.51 µM; on HDAC1 it was more than 100 µM. Also, the inhibition at 10 µM at IDO1 (setting [2]) was 84%.

Source of the values: publication PMC7582476, “Discovery of Novel Indoleamine 2,3-Dioxygenase 1 (IDO1) and Histone Deacetylase 1 (HDAC1) Dual Inhibitors Derived from the Natural Product Saprorthoquinone” (Molecules, 2020).
